Reference: US8618103B2 (priority 2009, dated 2013)

SMILES | melting point [°C]
COC(=O)N1CC[C@@H](Nc2ncccc2-c2cnc3[nH]ccc3n2)C1 [Example I-4, (R)-3-[3-(5H-Pyrrolo[2,3-b]pyrazin-2-yl)-pyridin-2-ylamino]-pyrrolidine-1-carboxylic acid methyl ester] | 221 to 224
CS(=O)(=O)N1CC[C@@H](Nc2ncccc2-c2cnc3[nH]ccc3n2)C1 [Example I-5, ((R)-1-Methanesulfonyl-pyrrolidin-3-yl)-[3-(5H-pyrrolo[2,3-b]pyrazin-2-yl)-pyridin-2-yl]-amine] | 224 to 226
COC(=O)N1CC[C@H](Nc2ncccc2-c2cnc3[nH]ccc3n2)C1 [Example I-10, (S)-3-[3-(5H-Pyrrolo[2,3-b]pyrazin-2-yl)-pyridin-2-ylamino]-pyrrolidine-1-carboxylic acid methyl ester] | 222 to 225
CS(=O)(=O)N1CC[C@H](Nc2ncccc2-c2cnc3[nH]ccc3n2)C1 [Example I-11, ((S)-1-Methanesulfonyl-pyrrolidin-3-yl)-[3-(5H-pyrrolo[2,3-b]pyrazin-2-yl)-pyridin-2-yl]-amine] | 222 to 224
CC(=O)N1CCCCC(Nc2ncccc2-c2cnc3[nH]ccc3n2)C1 (stereo not shown) [Example I-12, 1-{3-[3-(5H-Pyrrolo[2,3-b]pyrazin-2-yl)-pyridin-2-ylamino]-azepan-1-yl}-ethanone] | 100 to 110
COC(=O)N1CCCCC(Nc2ncccc2-c2cnc3[nH]ccc3n2)C1 (stereo not shown) [Example I-13, 3-[3-(5H-Pyrrolo[2,3-b]pyrazin-2-yl)-pyridin-2-ylamino]-azepane-1-carboxylic acid methyl ester] | 90 to 100
CS(=O)(=O)N1CCCCC(Nc2ncccc2-c2cnc3[nH]ccc3n2)C1 (stereo not shown) [Example I-14, (1-Methane-sulfonyl-azepan-3-yl)-[3-(5H-pyrrolo[2,3-b]pyrazin-2-yl)-pyridin-2-yl]-amine] | 213 to 216
CCS(=O)(=O)N1CC[C@@H](Nc2ncccc2-c2cnc3[nH]ccc3n2)C1 [Example I-16, ((R)-1-Ethanesulfonyl-pyrrolidin-3-yl)-[3-(5H-pyrrolo[2,3-b]pyrazin-2-yl)-pyridin-2-yl]-amine] | 230 to 232
CCCS(=O)(=O)N1CC[C@@H](Nc2ncccc2-c2cnc3[nH]ccc3n2)C1 [Example I-17, [(R)-1-(Propane-1-sulfonyl)-pyrrolidin-3-yl]-[3-(5H-pyrrolo[2,3-b]pyrazin-2-yl)-pyridin-2-yl]-amine] | 198 to 200

Next, values leading:

melting point [°C] | SMILES
187 to 189 | CC(C)S(=O)(=O)N1CC[C@@H](Nc2ncccc2-c2cnc3[nH]ccc3n2)C1 [Example I-18, [(R)-1-(Propane-2-sulfonyl)-pyrrolidin-3-yl]-[3-(5H-pyrrolo[2,3-b]pyrazin-2-yl)-pyridin-2-yl]-amine]
134 to 137 | CC(C)CS(=O)(=O)N1CC[C@@H](Nc2ncccc2-c2cnc3[nH]ccc3n2)C1 [Example I-19, [(R)-1-(2-Methyl-propane-1-sulfonyl)-pyrrolidin-3-yl]-[3-(5H-pyrrolo[2,3-b]pyrazin-2-yl)-pyridin-2-yl]-amine]
105 to 110 | CCC(=O)N1CC[C@@H](Nc2ncccc2-c2cnc3[nH]ccc3n2)C1 [Example I-20, 1-{(R)-3-[3-(5H-Pyrrolo[2,3-b]pyrazin-2-yl)-pyridin-2-ylamino]-pyrrolidin-1-yl}-propan-1-one]
115 to 120 | CCCC(=O)N1CC[C@@H](Nc2ncccc2-c2cnc3[nH]ccc3n2)C1 [Example I-21, 1-{(R)-3-[3-(5H-Pyrrolo[2,3-b]pyrazin-2-yl)-pyridin-2-ylamino]-pyrrolidin-1-yl}-butan-1-one]
178 to 180 | CCCS(=O)(=O)N1C[C@@H](C)C[C@H](Nc2ncccc2-c2cnc3[nH]ccc3n2)C1 [Example I-25, [(3S,5S)-5-Methyl-1-(propane-1-sulfonyl)-piperidin-3-yl]-[3-(5H-pyrrolo[2,3-b]pyrazin-2-yl)-pyridin-2-yl]-amine]
160 to 162 | CC(C)CCS(=O)(=O)N1CC[C@@H](Nc2ncccc2-c2cnc3[nH]ccc3n2)C1 [Example I-27, [(R)-1-(3-Methyl-butane-1-sulfonyl)-pyrrolidin-3-yl]-[3-(5H-pyrrolo[2,3-b]pyrazin-2-yl)-pyridin-2-yl]-amine]
253 to 255 | Cc1ccc(-c2cnc3[nH]ccc3n2)c(NC2CCCN(S(C)(=O)=O)C2)n1 (stereo not shown) [Example I-31, (1-Methane-sulfonyl-piperidin-3-yl)-[6-methyl-3-(5H-pyrrolo[2,3-b]pyrazin-2-yl)-pyridin-2-yl]-amine]
207 to 209 | FC(F)(F)CN1CCC[C@H](Nc2ncccc2-c2cnc3[nH]ccc3n2)C1 [Example I-33, [3-(5H-Pyrrolo[2,3-b]pyrazin-2-yl)-pyridin-2-yl]-[(S)-1-(2,2,2-trifluoro-ethyl)-piperidin-3-yl]-amine]
204 to 207 | CCS(=O)(=O)N1CCCC(Nc2nc(C)ccc2-c2cnc3[nH]ccc3n2)C1 (stereo not shown) [Example I-34, (1-Ethane-sulfonyl-piperidin-3-yl)-[6-methyl-3-(5H-pyrrolo[2,3-b]pyrazin-2-yl)-pyridin-2-yl]-amine]
218 to 220 | Cc1ccc(-c2cnc3[nH]ccc3n2)c(NC2CCCN(S(=O)(=O)CC(C)(C)C)C2)n1 (stereo not shown) [Example I-36, [1-(2,2-Dimethyl-propane-1-sulfonyl)-piperidin-3-yl]-[6-methyl-3-(5H-pyrrolo[2,3-b]pyrazin-2-yl)-pyridin-2-yl]-amine]
215 to 217 | CS(=O)(=O)N1CCCC(Nc2ncccc2-c2cnc3[nH]ccc3n2)CC1 (stereo not shown) [Example I-37, (1-Methane-sulfonyl-azepan-4-yl)-[3-(5H-pyrrolo[2,3-b]pyrazin-2-yl)-pyridin-2-yl]-amine]
209 to 212 | O=S(=O)(CC1CC1)N1CCC[C@H](Nc2ncccc2-c2cnc3[nH]ccc3n2)C1 [Example I-38, ((S)-1-Cyclopropyl-methanesulfonyl-piperidin-3-yl)-[3-(5H-pyrrolo[2,3-b]pyrazin-2-yl)-pyridin-2-yl]-amine]
254 to 259 | CC(=O)N1CCCC(Nc2nc(C)ccc2-c2cnc3[nH]cc(Cl)c3n2)C1 (stereo not shown) [Example I-39, 1-{3-[3-(7-Chloro-5H-pyrrolo[2,3-b]pyrazin-2-yl)-6-methyl-pyridin-2-ylamino]-piperidin-1-yl}-ethanone]
